Experimental data reported in patent US20070054868A1, “Synergistic polyphenol compounds, compositions thereof, and uses thereof” (The Trustees of Columbia University in the City of New York, priority 2005, published 2007).

System: EGFR, ERK1, ERK2, and AKT
Experiment: Phosphorylation of signaling proteins in HT29 cells
Type: cell-based, human
Experimental: These effects were detected with as little as […] of EGCG, and within 5 minutes. Phosphorylation of EGFR, ERK1, ERK2, and AKT were suppressed in cells treated with methyl-β-cyclodextrin, which depletes plasma membrane cholesterol. […] In addition, the inhibitory effect of EGCG on phosphorylation of EGFR was not blocked by the addition of cholesterol on the growth medium. These findings provide evidence that EGCG can alter membrane domain organization in colon cancer cells ant that this is not due to cholesterol depletion. It was noted that pre-treatment of the cells with EGCG or Poly E inhibited the binding of Alexa 488-labeled EGF to the cell surface receptor EGFR.

## methyl-β-cyclodextrin [reference compound]
  phosphorylation of EGFR, ERK1, ERK2, and AKT: suppressed
